We go through 9 molecules from patent US7928093B2, “Amino-propanol derivatives” (Novartis AG, priority 2004, dated 2011).

Assay [1] concerns the target T1, human S1P receptor EDG-8 (S1P5) (Homo sapiens, UniProt Q9H228).
T1 construct: expressed in transfected cells
The experiment in a line: S1P receptor profiling, GTP[γ-35S] binding SPA. It is filed as biochemical. On the set-up: key to S1P5 mode of action: Agon = agonist. To be noted: for EC50: membranes of transfected CHO or RH7777 cells. The protocol: (§1) Sphingosine-1-phosphate (S1P) Receptor Profiling
(§2) Agonist activities of compounds are tested on the human S1P receptors EDG-1 (S1P1), EDG-3 (S1P3), EDG-5 (S1P2), EDG-6 (S1P4) and EDG-8 (S1P5). […] The assay technology used is SPA (scintillation proximity based assay). Briefly, DMSO dissolved compounds are serially diluted and added to SPA-bead (Amersham-Pharmacia) immobilised SIP receptor expressing membrane protein (10-20 μg/well) in the presence of 50 mM Hepes, 100 mM NaCl, 10 mM MgCl2, 10 μM GDP, 0.1% fat free BSA and 0.2 nM GTP [γ-^35S] (1200 Ci/mmol). After incubation in 96 well microtiterplates at RT for 120 min, unbound GTP [γ-^35S] is separated by a centrifugation step. Luminescence of SPA beads triggered by membrane bound GTP [γ-^35S] is quantified with a TOPcount plate reader (Packard). EC50s are calculated using standard curve fitting software. In this assay, the compounds of formula I have a binding affinity to S1P1 receptor <50 nM.

Assay [2] deals with T2, human S1P receptor EDG-6 (S1P4) (Homo sapiens, UniProt O95977).
T2 construct: expressed in transfected cells
T2 sequence (O95977 1-384): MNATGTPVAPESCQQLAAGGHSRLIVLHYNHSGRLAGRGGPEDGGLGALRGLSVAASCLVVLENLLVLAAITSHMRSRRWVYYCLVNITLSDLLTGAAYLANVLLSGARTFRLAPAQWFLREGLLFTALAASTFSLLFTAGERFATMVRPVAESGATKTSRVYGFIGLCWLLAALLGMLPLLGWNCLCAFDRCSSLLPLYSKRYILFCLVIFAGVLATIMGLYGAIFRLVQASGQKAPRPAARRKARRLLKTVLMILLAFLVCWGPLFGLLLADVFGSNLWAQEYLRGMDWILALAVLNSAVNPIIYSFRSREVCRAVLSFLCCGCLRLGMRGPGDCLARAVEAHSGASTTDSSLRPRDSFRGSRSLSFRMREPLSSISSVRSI
The assay can be described thus: S1P receptor profiling, GTP[γ-35S] binding SPA. It is filed as biochemical. On the set-up: key to S1P4 mode of action: Agon = agonist. To be noted: for EC50: membranes of transfected CHO or RH7777 cells. On the procedure:
as §1, §2
For orientation: GTPγS is a poorly hydrolysed GTP analogue; its binding reports G protein activation.

Assay [3] has as its target T3, human S1P receptor EDG-3 (S1P3) (Homo sapiens, UniProt Q99500).
T3 construct: expressed in transfected cells
The assay can be described thus: S1P receptor profiling, GTP[γ-35S] binding SPA. It is filed as biochemical. On the set-up: key to S1P3 mode of action: Agon = agonist. The conditions noted are these: for EC50: membranes of transfected CHO or RH7777 cells. The protocol:
as §1, §2

Assay [4] deals with T4, human S1P receptor EDG-1 (S1P1) (Homo sapiens, UniProt P21453).
T4 construct: expressed in transfected cells
T4 sequence (P21453 whole entry): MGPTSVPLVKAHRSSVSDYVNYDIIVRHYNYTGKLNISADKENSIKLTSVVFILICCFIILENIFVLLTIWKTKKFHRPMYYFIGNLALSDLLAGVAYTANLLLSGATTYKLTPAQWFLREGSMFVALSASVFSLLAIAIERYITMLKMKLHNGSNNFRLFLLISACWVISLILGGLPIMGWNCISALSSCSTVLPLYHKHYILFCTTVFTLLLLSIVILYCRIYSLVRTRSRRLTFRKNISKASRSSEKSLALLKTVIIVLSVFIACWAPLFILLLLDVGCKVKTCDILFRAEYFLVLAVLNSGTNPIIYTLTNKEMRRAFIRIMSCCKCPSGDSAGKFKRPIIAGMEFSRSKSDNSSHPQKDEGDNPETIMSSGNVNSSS
The experiment in a line: S1P receptor profiling, GTP[γ-35S] binding SPA. In kind it is biochemical. Further details: key to S1P1 mode of action: Agon = agonist. To be noted: for EC50: membranes of transfected CHO or RH7777 cells. The protocol:
as §1, §2

In assay [5] the test system is peripheral blood lymphocytes. The experiment in a line: Blood lymphocyte depletion in vivo. To be noted: rats, p.o., after 6 h. The protocol:
B. In Vivo: Blood Lymphocyte Depletion
A compound of formula I or the vehicle is administered orally by gavage to rats. Tail blood for hematological monitoring is obtained on day −1 to give the baseline individual values, and at 2, 6, 24, 48 and 72 hours after application. In this assay, the compounds of formula I deplete peripheral blood lymphocytes when administered at a dose of 0.03 to 3 mg/kg. For example, following results are obtained: depletion of peripheral blood lymphocytes by more than 50%.

T3 sequence (Q99500 whole entry): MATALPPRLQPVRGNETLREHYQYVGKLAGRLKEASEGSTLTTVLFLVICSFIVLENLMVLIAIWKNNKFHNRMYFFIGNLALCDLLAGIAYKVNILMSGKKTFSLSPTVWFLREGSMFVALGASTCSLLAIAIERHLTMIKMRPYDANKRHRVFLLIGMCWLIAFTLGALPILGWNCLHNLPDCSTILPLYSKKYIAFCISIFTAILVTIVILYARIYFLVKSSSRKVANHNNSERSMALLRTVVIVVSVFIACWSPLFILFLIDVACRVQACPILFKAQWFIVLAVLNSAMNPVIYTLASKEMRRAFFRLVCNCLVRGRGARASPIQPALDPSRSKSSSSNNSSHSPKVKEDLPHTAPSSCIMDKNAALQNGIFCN
T1 sequence (Q9H228 whole entry): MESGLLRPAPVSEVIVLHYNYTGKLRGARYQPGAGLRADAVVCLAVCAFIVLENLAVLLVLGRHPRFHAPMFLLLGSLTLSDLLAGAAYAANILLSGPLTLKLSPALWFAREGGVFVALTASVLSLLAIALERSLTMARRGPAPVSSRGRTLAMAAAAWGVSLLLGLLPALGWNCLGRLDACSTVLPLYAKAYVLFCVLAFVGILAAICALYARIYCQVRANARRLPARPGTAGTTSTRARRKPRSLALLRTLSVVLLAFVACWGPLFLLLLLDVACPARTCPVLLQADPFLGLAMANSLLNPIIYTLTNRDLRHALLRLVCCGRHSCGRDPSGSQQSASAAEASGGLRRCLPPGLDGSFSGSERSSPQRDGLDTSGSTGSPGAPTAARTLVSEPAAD

As usually defined, the EC50 is the concentration at which the effect is half-maximal. As for `CCCCCCCOc1ccc(CC[C@@](C)(N)[C@H](C)OP(=O)(O)O)cc1` [Example 19, Phosphoric acid mono-[(1S,2R)-2-amino-4-(4-heptyloxy-phenyl)-1,2-dimethyl-butyl]ester], in assay [1], the “S1P5 mode of action” value was “Agon” and the midpoint of the response, the EC50, lay at 0.15 nM. In addition, in assay [2], the “S1P4 mode of action” value is on record as “Agon” and the EC50 amounted to 0.4 nM. For the same molecule, in assay [3], the “S1P3 mode of action” value is on record as “Agon” and the EC50 came to 1.4 nM. In addition, in assay [4], the “S1P1 mode of action” value is given as “Agon” and the response was half-maximal at 0.07 nM (EC50).
`C[C@H](O)[C@](C)(N)CCc1ccc(OCCCCc2ccccc2)cc1` [Example 15, (2S,3R)-3-Amino-3-methyl-5-[4-(4-phenyl-butoxy)-phenyl]-pentan-2-ol]: the “dose giving depletion of peripheral blood lymphocytes by more than 50%” value (“dose giving depletion … by more than 50%” for short) in assay [5] amounted to 0.6 mg/kg.
`C[C@H](O)[C@](C)(N)CCc1ccc(OCCCCCc2ccccc2)cc1` [Example 13, (2S,3R)-3-Amino-3-methyl-5-[4-(5-phenyl-pentyloxy)-phenyl]-pentan-2-ol]: the “dose giving depletion … by more than 50%” value in assay [5] turned out to be 0.5 mg/kg.
As for `C[C@@H](O)[C@](C)(N)CCc1ccc(OCCc2ccc(-c3ccccc3)cc2)cc1` [Example 17, (2R,3R)-3-Amino-5-[4-(2-biphenyl-4-yl-ethoxy)-phenyl]-3-methyl-pentan-2-ol], in assay [5], the “dose giving depletion … by more than 50%” value is recorded as 0.2 mg/kg.
On to `CCCCCCCOc1ccc(CC[C@@](C)(N)[C@@H](C)OP(=O)(O)O)cc1` [Example 18, Phosphoric acid mono-[(1R,2R)-2-amino-4-(4-heptyloxy-phenyl)-1,2-dimethyl-butyl]ester], for which, in assay [1], the “S1P5 mode of action” value is “Agon” and a half-maximal response (EC50) required 0.74 nM. Also, in assay [2], the “S1P4 mode of action” value is recorded as “Agon” and a half-maximal effect (EC50) was put at 0.7 nM. Besides, in assay [3], the “S1P3 mode of action” value is on record as “Agon” and the EC50 came to 4.6 nM. In assay [4], the “S1P1 mode of action” value is on record as “Agon” and a half-maximal effect (EC50) was put at 0.51 nM.
`CCCCCOc1ccc2cc(CC[C@@](C)(N)[C@@H](C)O)ccc2c1` [Example 12, (2R,3R)-3-Amino-5-(6-pentyloxy-naphthalen-2-yl)-3-methyl-pentan-2-ol]: the “dose giving depletion … by more than 50%” value in assay [5] was determined as 0.4 mg/kg.
With `CCCCCOc1ccc2cc(CC[C@@](C)(N)[C@@H](C)OP(=O)(O)O)ccc2c1` [Example 20, Phosphoric acid mono-[(1R,2R)-2-amino-1,2-dimethyl-4-(6-pentyloxy-naphthalen-2-yl)-butyl]ester], in assay [1], the “S1P5 mode of action” value is given as “Agon” and a half-maximal response (EC50) required 0.29 nM. Further, in assay [2], the “S1P4 mode of action” value is “Agon” and the response was half-maximal at 0.67 nM (EC50). In assay [3], the “S1P3 mode of action” value is given as “Agon” and a half-maximal response (EC50) required 8.5 nM. Also, in assay [4], the “S1P1 mode of action” value is “Agon” and the EC50 worked out at 0.13 nM.
Regarding `C[C@@H](O)[C@](C)(N)CCc1ccc(OCCCCc2ccccc2)cc1` [Example 14, (2R,3R)-3-Amino-3-methyl-5-[4-(4-phenyl-butoxy)-phenyl]-pentan-2-ol], the “dose giving depletion … by more than 50%” value in assay [5] worked out at 0.1 mg/kg.
Same read-out and setting: to `CCCCCCCOc1ccc(CC[C@@](C)(N)[C@@H](C)O)cc1` [Example 1, (2R,3R)-3-Amino-5-(4-heptyloxy-phenyl)-3-methyl-pentan-2-ol] belongs 0.07 mg/kg.
